In US12084444B2, “Spiro-lactam NMDA modulators and methods of using same” (Tenacia Biotechnology (Hong Kong) Co., Limited, priority 2016, dated 2024):

Columns and labels:
[1] = molecular target: T1, NMDAR2A expressing HEK cell membranes (Homo sapiens, UniProt Q12879); experiment: NMDAR agonist assay, [3H]MK-801 binding, NMDAR2A; type: biochemical; set-up: key to NMDAR2A B: log EC50: 0=−; ≥1×10^−9 M (e.g., −8)=+; <1×10^−9 M (e.g., −10)=++; details: 50 μM glutamate; for EC50: read-out: NMDAR2A B: log EC50 (converted)
T1 construct: expressed in transfected cells; host or cells: HEK cells (membrane extract)
Protocol: (§1) Assays were conducted as described by Moskal et al., “GLYX-13: a monoclonal antibody-derived peptide that acts as an N-methyl-D-aspartate receptor modulator,” Neuropharmacology, 49, 1077-87, 2005. These studies were designed to determine if the test compounds act to facilitate NMDAR activation in NMDAR2A, NMDAR2B, NMDAR2C or NMDAR2D expressing HEK cell membranes as measured by increases in [^3H]MK-801 binding.
(§2) In the assay, 300 μg of NMDAR expressing HEK cell membrane extract protein was preincubated for 15 minutes at 25° C. in the presence of saturating concentrations of glutamate (50 μM) and varying concentrations of test compound (1×10^−15 M-1×10^−7 M), or 1 mM glycine. Following the addition of 0.3 μCi of [^3H]MK-801 (22.5 Ci/mmol), reactions were again incubated for 15 minutes at 25° C. (nonequilibrium conditions). Bound and free [^3H]MK-801 were separated via rapid filtration using a Brandel apparatus.
(§3) In analyzing the data, the DPM (disintegrations per minute) of [^3H]MK-801 remaining on the filter were measured for each concentration of test compound or for 1 mM glycine. The DPM values for each concentration of a ligand (N=2) were averaged. The baseline value was determined from the best fit curve of the DPM values modeled using the GraphPad program and the log(agonist) vs. response(three parameters) algorithm was then subtracted from all points in the dataset. The % maximal [^3H]MK-801 binding was then calculated relative to that of 1 mM glycine: all baseline subtracted DPM values were divided by the average value for 1 mM glycine. The EC50 and % maximal activity were then obtained from the best fit curve of the % maximal [^3H]MK-801 binding data modelled using the GraphPad program and the log(agonist) vs. response(three parameters) algorithm.
(§4) The tables below summarize the results for the wild type NMDAR agonists NMDAR2A, NMDAR2B, NMDAR2C, and NMDAR2D, and whether the compound is not an agonist (−), is an agonist (+), or is a strong agonist (++), where column A is based on the % maximal [^3H]MK-801 binding relative to 1 mM glycine (−=0; <100%=+; and >100%=++); and column B is based on log EC50 values (0=−; ≥1×10^−9 M (e.g., −8)=+; and <1×10^−9 M (e.g., −10)=++).

[2] = molecular target: T2, NMDAR2A expressing HEK cell membranes (Homo sapiens, UniProt Q05586+Q12879); experiment: NMDAR agonist assay, [3H]MK-801 binding, NMDAR2A; type: biochemical; set-up: key to NMDAR2A B: log EC50: 0=−; ≥1×10^−9 M (e.g., −8)=+; <1×10^−9 M (e.g., −10)=++; details: 50 μM glutamate; for Emax: 0.25 h, read-out: NMDAR2A A: % maximal [3H]MK-801 binding relative to 1 mM glycine; for EC50: read-out: NMDAR2A B: log EC50 (converted)
T2 construct: expressed in transfected cells; host or cells: HEK cells (membrane extract)
Protocol: as §1, §2, §3, §4

[3] = Oral pharmacokinetics (plasma, brain, CSF); type: in vivo, Sprague Dawley rats; details: rat, per os, 10 mg/kg; for AUC(0-t) / bioavailability / Tmax / Cmax: Sprague Dawley, plasma, po; for Tmax: normal saline
Protocol: In another experiment, Sprague Dawley rats were dosed per os using a normal saline formulation containing 10 mg/kg of the compounds identified in the table below. Plasma, brain, and CSF samples were analyzed at various time points over a 24 hour period. The table below summarizes the results of the oral pharmacokinetics.

IV pharmacokinetics = experiment: IV pharmacokinetics; set-up: species or system Sprague Dawley rats; details: Sprague Dawley, in vivo, rat, 2 mg/kg, normal saline; for Vd: read-out: Vss
Protocol: Sprague Dawley rats were dosed intravenously using a normal saline formulation containing 2 mg/kg of the compounds identified in the below table. The table below summarizes the results of the IV pharmacokinetics.

[4] = molecular target: T3, NMDAR2B expressing HEK cell membranes (Homo sapiens, UniProt Q05586+Q13224); experiment: NMDAR agonist assay, [3H]MK-801 binding, NMDAR2B; type: biochemical; set-up: key to NMDAR2B B: log EC50: 0=−; ≥1×10^−9 M (e.g., −8)=+; <1×10^−9 M (e.g., −10)=++; details: 50 μM glutamate; for EC50: read-out: NMDAR2B B: log EC50 (converted); for Emax: 0.25 h, read-out: NMDAR2B A: % maximal [3H]MK-801 binding relative to 1 mM glycine
T3 construct: expressed in transfected cells; host or cells: HEK cells (membrane extract)
Protocol: as §1, §2, §3, §4

[5] = molecular target: T4, NMDAR2B expressing HEK cell membranes (Homo sapiens, UniProt Q13224); experiment: NMDAR agonist assay, [3H]MK-801 binding, NMDAR2B; type: biochemical; set-up: key to NMDAR2B B: log EC50: 0=−; ≥1×10^−9 M (e.g., −8)=+; <1×10^−9 M (e.g., −10)=++; details: 50 μM glutamate; for EC50: read-out: NMDAR2B B: log EC50 (converted)
T4 construct: expressed in transfected cells; host or cells: HEK cells (membrane extract)
Protocol: as §1, §2, §3, §4

T2 sequence (Q12879 23-1464, other chains not shown): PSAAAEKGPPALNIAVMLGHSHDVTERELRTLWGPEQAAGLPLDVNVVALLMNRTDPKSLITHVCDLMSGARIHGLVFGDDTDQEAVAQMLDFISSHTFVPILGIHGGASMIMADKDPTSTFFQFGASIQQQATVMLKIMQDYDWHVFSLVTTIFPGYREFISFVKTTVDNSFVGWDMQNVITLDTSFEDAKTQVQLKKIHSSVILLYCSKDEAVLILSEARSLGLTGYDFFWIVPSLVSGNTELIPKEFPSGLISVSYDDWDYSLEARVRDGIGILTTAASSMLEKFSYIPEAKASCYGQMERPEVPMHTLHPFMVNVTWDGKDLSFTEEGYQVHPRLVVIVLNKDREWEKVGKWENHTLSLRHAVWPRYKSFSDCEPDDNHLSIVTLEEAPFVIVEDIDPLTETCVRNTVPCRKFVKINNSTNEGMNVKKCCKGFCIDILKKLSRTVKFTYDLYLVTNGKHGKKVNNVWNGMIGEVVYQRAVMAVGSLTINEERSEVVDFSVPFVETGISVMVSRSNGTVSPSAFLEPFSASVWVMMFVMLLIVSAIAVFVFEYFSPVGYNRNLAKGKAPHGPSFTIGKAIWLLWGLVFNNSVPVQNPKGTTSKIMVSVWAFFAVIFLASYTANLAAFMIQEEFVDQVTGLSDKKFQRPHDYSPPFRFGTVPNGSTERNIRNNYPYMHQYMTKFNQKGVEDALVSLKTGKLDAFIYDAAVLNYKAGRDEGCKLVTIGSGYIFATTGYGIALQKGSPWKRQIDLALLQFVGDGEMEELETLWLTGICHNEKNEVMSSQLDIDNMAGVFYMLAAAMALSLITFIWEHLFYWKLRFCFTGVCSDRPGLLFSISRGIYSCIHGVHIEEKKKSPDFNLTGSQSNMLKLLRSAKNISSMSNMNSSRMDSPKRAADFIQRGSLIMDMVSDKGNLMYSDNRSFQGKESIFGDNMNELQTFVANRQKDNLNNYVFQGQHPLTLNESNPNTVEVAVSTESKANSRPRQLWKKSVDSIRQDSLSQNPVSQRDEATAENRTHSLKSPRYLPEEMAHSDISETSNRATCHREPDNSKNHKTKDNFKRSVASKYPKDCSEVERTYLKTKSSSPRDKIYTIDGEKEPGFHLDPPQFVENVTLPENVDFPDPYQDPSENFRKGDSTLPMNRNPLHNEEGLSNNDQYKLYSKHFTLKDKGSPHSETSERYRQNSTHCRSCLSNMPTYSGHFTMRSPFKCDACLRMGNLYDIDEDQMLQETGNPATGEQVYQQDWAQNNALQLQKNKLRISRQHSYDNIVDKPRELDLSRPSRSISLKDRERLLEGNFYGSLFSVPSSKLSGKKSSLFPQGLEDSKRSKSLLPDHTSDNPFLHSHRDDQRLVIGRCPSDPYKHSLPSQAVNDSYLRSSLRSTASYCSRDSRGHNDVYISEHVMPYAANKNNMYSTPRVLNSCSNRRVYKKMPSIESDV
T1 sequence (Q12879 23-1464, other chains not shown): as above
T3 sequence (Q13224 27-1484, other chains not shown): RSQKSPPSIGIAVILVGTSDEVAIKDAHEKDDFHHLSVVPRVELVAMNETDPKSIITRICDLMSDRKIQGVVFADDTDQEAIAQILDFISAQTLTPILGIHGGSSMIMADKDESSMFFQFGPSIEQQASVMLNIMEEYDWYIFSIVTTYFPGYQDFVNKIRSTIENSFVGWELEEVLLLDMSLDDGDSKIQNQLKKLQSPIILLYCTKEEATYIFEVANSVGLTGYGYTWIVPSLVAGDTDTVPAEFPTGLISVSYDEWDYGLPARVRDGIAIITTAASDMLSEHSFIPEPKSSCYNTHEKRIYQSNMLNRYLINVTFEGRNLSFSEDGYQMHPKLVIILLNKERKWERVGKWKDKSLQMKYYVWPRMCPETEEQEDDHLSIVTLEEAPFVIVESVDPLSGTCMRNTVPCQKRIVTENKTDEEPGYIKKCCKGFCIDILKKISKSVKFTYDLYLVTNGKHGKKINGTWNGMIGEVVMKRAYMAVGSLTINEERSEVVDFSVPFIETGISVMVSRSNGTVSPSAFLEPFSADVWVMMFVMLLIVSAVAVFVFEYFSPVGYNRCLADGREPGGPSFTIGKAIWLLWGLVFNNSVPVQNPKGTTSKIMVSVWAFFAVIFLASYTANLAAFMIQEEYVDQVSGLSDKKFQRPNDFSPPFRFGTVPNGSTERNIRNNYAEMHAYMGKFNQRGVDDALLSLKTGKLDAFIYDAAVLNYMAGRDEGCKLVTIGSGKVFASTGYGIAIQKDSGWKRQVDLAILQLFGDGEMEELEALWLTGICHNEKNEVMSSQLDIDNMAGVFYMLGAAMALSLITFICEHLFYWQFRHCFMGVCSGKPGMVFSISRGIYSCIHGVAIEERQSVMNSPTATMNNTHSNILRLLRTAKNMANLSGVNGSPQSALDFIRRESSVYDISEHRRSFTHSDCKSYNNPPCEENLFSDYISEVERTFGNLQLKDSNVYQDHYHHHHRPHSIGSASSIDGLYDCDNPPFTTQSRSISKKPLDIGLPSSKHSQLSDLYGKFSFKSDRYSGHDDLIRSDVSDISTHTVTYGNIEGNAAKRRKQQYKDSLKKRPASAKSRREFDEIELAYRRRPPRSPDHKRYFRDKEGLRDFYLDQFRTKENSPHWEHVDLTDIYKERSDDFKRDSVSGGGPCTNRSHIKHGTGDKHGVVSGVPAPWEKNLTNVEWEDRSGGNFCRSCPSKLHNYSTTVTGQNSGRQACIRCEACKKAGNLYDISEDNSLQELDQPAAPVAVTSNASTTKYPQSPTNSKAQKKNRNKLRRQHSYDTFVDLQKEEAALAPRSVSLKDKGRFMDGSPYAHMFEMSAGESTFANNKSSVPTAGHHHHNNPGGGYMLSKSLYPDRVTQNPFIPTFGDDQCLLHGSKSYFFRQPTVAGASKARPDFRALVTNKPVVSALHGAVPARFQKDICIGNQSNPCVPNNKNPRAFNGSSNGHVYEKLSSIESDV

NMDAR2A B: log EC50 [1] | Emax [2] [%] | EC50 [4] [nM] | Emax [4] [%] | NMDAR2A A: % maximal [3H]MK-801 binding relative to 1 mM glycine [1] | EC50 [2] [nM] | NMDAR2B A: % maximal [3H]MK-801 binding relative to 1 mM glycine [5] | NMDAR2B B: log EC50 [5] | Structure (SMILES) | other results
− | 0 | < 1 | < 100 |  |  |  |  | C[C@@H](O)[C@@H](C(=O)NCc1ccccc1)N1CC2(CCNC(=O)C2)C1=O (single isomer, unassigned) [CB] | AUC(0-t) [3]: 297 ng·h/mL; bioavailability [3]: 5%; Tmax [3]: 30 min; Cmax [3]: 143 ng/mL; CSF Cmax [3]: 31.02 ng/mL; Brain Cmax [3]: 7.38 ng/mL; AUC(0-t) (IV pharmacokinetics): 1320 ng·h/mL; C0 (IV pharmacokinetics): 4320 ng/mL; clearance (IV pharmacokinetics): 25.3 mL/min/kg; half-life (IV pharmacokinetics): 106 min; Vd (IV pharmacokinetics): 1.2 L/kg
− |  | < 1 | < 100 | − (−=0) |  |  |  | C[C@@H](O)[C@@H](C(=O)N(C)C)N1CC2(CCNC(=O)C2)C1=O (single isomer, unassigned) [CC] | AUC(0-t) [3]: 701 ng·h/mL; bioavailability [3]: 7%; Tmax [3]: 25.2 min; Cmax [3]: 191 ng/mL; CSF Cmax [3]: 0 ng/mL; Brain Cmax [3]: 0 ng/mL; AUC(0-t) (IV pharmacokinetics): 2130 ng·h/mL; C0 (IV pharmacokinetics): 7930 ng/mL; clearance (IV pharmacokinetics): 15.7 mL/min/kg; half-life (IV pharmacokinetics): 127 min; Vd (IV pharmacokinetics): 0.5 L/kg
 |  |  |  | + (<100%=+) | < 1 | + (<100%=+) |  | C[C@@H](O)[C@@H](C(=O)N(C)C)N1CC2(CCNC(=O)C2)C1=O (single isomer, unassigned) [CD] | EC50 [5]: < 1 nM
 | < 100 | < 1 | < 100 |  | < 1 |  |  | COc1ccc(CN2CC3(CCN(C)C(=O)C3)C2=O)cc1 (single isomer, unassigned) [CI, 2-(4-methoxybenzyl)-7-methyl-2,7-diazaspiro[3.5]nonane-1,6-dione] | AUC(0-t) [3]: 5060 ng·h/mL; bioavailability [3]: 97%; Tmax [3]: 15 min; Cmax [3]: 5050 ng/mL; CSF Cmax [3]: 1113.94 ng/mL; Brain Cmax [3]: 996.66 ng/mL; AUC(0-t) (IV pharmacokinetics): 1040 ng·h/mL; C0 (IV pharmacokinetics): 2120 ng/mL; clearance (IV pharmacokinetics): 32 mL/min/kg; half-life (IV pharmacokinetics): 25.2 min; Vd (IV pharmacokinetics): 0.91 L/kg
 | < 100 | < 1 | < 100 |  | < 1 |  |  | CCN1CCC2(CC1=O)CN(Cc1ccc(OC)cc1)C2=O (single isomer, unassigned) [CL, 7-ethyl-2-(4-methoxybenzyl)-2,7-diazaspiro[3.5]nonane-1,6-dione] | AUC(0-t) [3]: 1430 ng·h/mL; bioavailability [3]: 37%; Tmax [3]: 15 min; Cmax [3]: 1800 ng/mL; CSF Cmax [3]: 866.42 ng/mL; Brain Cmax [3]: 707.6 ng/mL; AUC(0-t) (IV pharmacokinetics): 772 ng·h/mL; C0 (IV pharmacokinetics): 2690 ng/mL; clearance (IV pharmacokinetics): 41.7 mL/min/kg; half-life (IV pharmacokinetics): 12.6 min; Vd (IV pharmacokinetics): 0.7 L/kg
− | 0 |  | 0 |  |  |  | − | COc1ccc(CN2CC3(CCNC(=S)C3)C2=O)cc1 (single isomer, unassigned) [CM, 2-(4-methoxybenzyl)-6-thioxo-2,7-diazaspiro[3.5]nonan-1-one] | 
 |  | < 1 |  | + (<100%=+) |  | + (<100%=+) |  | COc1ccc(CN2CC3(CCNC(=S)C3)C2=S)cc1 (single isomer, unassigned) [CP, 2-(4-methoxybenzyl)-2,7-diazaspiro[3.5]nonane-1,6-dithione] | EC50 [1]: < 1 nM
 |  |  |  | + (<100%=+) | < 1 | + (<100%=+) |  | O=C1CC2(CCN1)CN(Cc1ccccc1)C2=O (single isomer, unassigned) [CV, 2-benzyl-2,7-diazaspiro[3.5]nonane-1,6-dione] | EC50 [5]: < 1 nM
 |  | < 1 |  | + (<100%=+) |  | ++ (>100%=++) |  | CN1CC2(CCNC(=O)C2)C1=O (single isomer, unassigned) [DH, 2-methyl-2,7-diazaspiro[3.5]nonane-1,6-dione] | EC50 [1]: < 1 nM
 |  |  |  | + (<100%=+) | < 1 | − (−=0) | − | CC1CC(=O)N(c2ccc(F)cc2)C12CN([C@H](C(N)=O)[C@@H](C)O)C2=O (single isomer, unassigned) [DL] | 
− | 0 |  | 0 |  |  |  | − | CC1CC(=O)N(c2ccc(F)cc2)C12CN(Cc1ccccc1)C2=O (stereo not drawn) [BY, 2-benzyl-5-(4-fluorophenyl)-8-methyl-2,5-diazaspiro[3.4]octane-1,6-dione] | 
− | 0 |  | 0 |  |  |  | − | C[C@@H](O)[C@@H](C(=O)NCc1ccccc1)N1CC2(CCNC(=O)C2)C1=O (stereo partly drawn) [CA, (2S,3R)—N-benzyl-2-(1,6-dioxo-2,7-diazaspiro[3.5]nonan-2-yl)-3-hydroxybutanamide] | 
− | 0 |  | 0 |  |  |  | − | CC1CC(=O)N(c2ccc(F)cc2)C12CN(CC(N)=O)C2=O (stereo not drawn) [CE, 2-(5-(4-fluorophenyl)-8-methyl-1,6-dioxo-2,5-diazaspiro[3.4]octan-2-yl)acetamide] | 
− | 0 |  | 0 |  |  |  | − | CC1C(N)C(=O)N(C)C12CN(Cc1ccccc1)C2=O (stereo not drawn) [CH, 7-amino-2-benzyl-5,8-dimethyl-2,5-diazaspiro[3.4]octane-1,6-dione] | 
− | 0 |  | 0 |  |  |  | − | CCN1CCC2(CC1=O)CN(Cc1ccc(OC)cc1)C2=O (stereo not drawn) [CK, 7-ethyl-2-(4-methoxybenzyl)-2,7-diazaspiro[3.5]nonane-1,6-dione] | 
− | 0 |  | 0 |  |  |  | − | CNC(=O)[C@H]([C@@H](C)O)N1CC2(CCNC(=O)C2)C1=O (stereo partly drawn) [DA, (2S,3R)-2-(1,6-dioxo-2,7-diazaspiro[3.5]nonan-2-yl)-3-hydroxy-N-methylbutanamide] | 
